Bounds are passed on as bounds.

In experiment [1] the target is PyasOBP2. Put plainly: Fluorescence competitive binding assay with 1-NPN as probe. Set-up: species or system Pachyrhinus yasumatsui. Conditions: for IC50 / Ki: PyasOBP2 2 μM, 1-NPN 2 μM; for IC50: ligand 0 to 20 μM, three replicates; for Ki: dissociation constant calculated from IC50 by Ki=IC50/(1+[1-NPN]/K1-NPN); for binding to PyasOBP2 (in words): fluorescence competitive binding, ligand up to 20 μM. The procedure:
(§1) Fluorescence competitive binding assays were carried out on an F-2700 fluorescence spectrophotometer (Hitachi, Tokyo, Japan) to determine the binding affinity of PyasOBP2. 1-N-phenyl-naphthylamine (1-NPN) was used as a fluorescent probe ([Pelosi et al., 2006]) with excitation at 337 nm, and the emission spectra were measured from 370 to 550 nm. Based on gas chromatography-mass spectrometry (GC-MS) and previous studies ([Yan et al., 2017]; [Yan et al., 2020]), 38 volatiles derived from Z. jujuba were selected as putative ligands for fluorescence competitive binding assays (Table 2). 1-NPN and all ligands used in binding assays were diluted in methanol to 1 mM stock solutions. To measure the binding affinity of PyasOBP2 with 1-NPN, PyasOBP2 solution (with a final concentration of 2 μM) was titrated with 1-NPN to final concentrations ranging from 2 to 20 μM. In ligand-binding assays, each ligand with a concentration ranging from 0 to 20 μM was added into a mixture of PyasOBP2 (2 μM) and 1-NPN (2 μM), and maximal fluorescence intensities were plotted against ligand concentrations based on three replicates.
The dissociation constant K1-NPN (for PyasOBP2 binding with 1-NPN) was calculated with Scatchard plotting of binding data in the GraphPad Prism 8.0 Software ([Sideris et al., 1992]). The dissociation constant (Ki) of each ligand was calculated with Eq. 3, as described by [Cui et al. (2018)]. The ligand binding affinity to PyasOBP2 was considered as very strong (Ki≤5 μM), strong (5 μM<Ki≤10 μM), moderate (10 μM<Ki≤20 μM) and weak (Ki>20 μM) in this study. Ki=IC50/(1+[1−NPN]/K1−NPN) (3)

Experiment [2] addresses PyasOBP2. Put plainly: Binding of fluorescent probe 1-NPN to PyasOBP2 (titration, Scatchard plot). Also noted: species or system Pachyrhinus yasumatsui. Particulars: PyasOBP2 2 μM titrated with 1-NPN 2 to 20 μM, read-out: dissociation constant of PyasOBP2 with 1-NPN. The procedure:
as §1, with “To measure the binding affinity of PyasOBP2 with 1-NPN, PyasOBP2 solution (with a final concentration of 2 μM) was titrated with 1-NPN to final concentrations ranging from 2 to 20 μM.” left out
The dissociation constant K1-NPN (for PyasOBP2 binding with 1-NPN) was calculated with Scatchard plotting of binding data in the GraphPad Prism 8.0 Software ([Sideris et al., 1992]). The dissociation constant (Ki) of each ligand was calculated with Eq. 3, as described by [Cui et al. (2018)]. […]

A further experiment relates to P. yasumatsui adults. Set-up: method as in Yan et al., 2017; Yan et al., 2020. Conditions: volatiles emitted from jujube shoots, ref Yan et al., 2017, 2020; cited from earlier work.
Experiment [3] deals with adult P. yasumatsui antennae. Also noted: method as in Yan et al., 2017; Yan et al., 2020. Particulars: ref Yan et al., 2017, 2020; cited from earlier work.

As to `C=CC(C)(O)CCC=C(C)CCC=C(C)C` (mixture of isomers) [Nerolidol], the IC50 (commonly the point on the concentration scale where inhibition reaches its midpoint) at PyasOBP2 [1] is 7.54 µM. For the same molecule, the results for the Ki on PyasOBP2 [1] and on PyasOBP2 [1] (listed as nerolidol) were 6.41 µM and below 10 µM, respectively.
Consider `c1ccc(Nc2cccc3ccccc23)cc1` [1-NPN, 1-N-phenyl-naphthylamine], for which the Kd at PyasOBP2 [2] amounted to 5.66 µM.
As for `C=CC(O)CC` (centres unmarked) [1-Penten-3-ol], on PyasOBP2 [1], the IC50 is above 20 µM.
As to `CC(C)=Cc1ccccc1` [2-Methyl-1-phenylpropene], at PyasOBP2 [1], the IC50 was 5.42 µM and the Ki (usually a measure of affinity in units of concentration, obtained from inhibition or displacement) is 4.61 µM.
The matching figures for `CC/C=C\CCOC(=O)C(C)CC` (stereo not drawn) [2-Methylbutyric Acid cis-3-Hexen-1-yl Ester]: 11.9 µM and 10.1 µM.
Turning to `CC1=CCC2C(C1)C2(C)C` (centres unmarked) [3-Carene], on PyasOBP2 [1], the IC50 was above 20 µM and the Ki is above 20 µM.
In the case of `N#Cc1ccccc1` [Benzonitrile], on PyasOBP2 [1], the IC50 is above 20 µM and the “binding to PyasOBP2 (in words)” value is reported as “could not bind to PyasOBP2”.
For the molecule `OCc1ccccc1` [Benzyl alcohol], at PyasOBP2 [1], the IC50 was determined as 16.2 µM and the Ki is 12 µM.
`CCCCOC(C)=O` [Butyl acetate]: on PyasOBP2 [1], the IC50 was above 20 µM and the Ki was above 20 µM.
As to `C=C1C2CCC(C2)C1(C)C` (centres unmarked) [Camphene], on PyasOBP2 [1], the IC50 is 8.33 µM and the Ki was 7.08 µM.
In the case of `CCCCCC=O` [Caproaldehyde], on PyasOBP2 [1], the IC50 was determined as 10.9 µM and the Ki was 8.03 µM.
The like results for `CCCCOC(=O)c1ccccc1C(=O)OCCCC` [Dibutyl phthalate] were, in that order, 10.5 µM and 7.73 µM.
Turning to `C=C(C)[C@H]1CC=C(C)CC1` [Dipentene], on PyasOBP2 [1], the IC50 came to 7.05 µM and the Ki was 5.99 µM. Moreover, the Ki at PyasOBP2 [1] (listed as dipentene) was below 5 µM.
Turning to `CCCCCCCCCCCC` [Dodecane], on PyasOBP2 [1], the IC50 is above 20 µM and the “binding to PyasOBP2 (in words)” value is given as “could not bind to PyasOBP2”.
Turning to `CCOC(=O)C(C)CC` (centres unmarked) [Ethyl 2-methylbutyrate], the IC50 on PyasOBP2 [1] was above 20 µM.
Take `CCCC(=O)OCC` [Ethyl butyrate]: at PyasOBP2 [1], the IC50 was 3.55 µM and the Ki was 3.02 µM. Also, on PyasOBP2 [1] (listed as ethyl butyrate), the Ki was below 5 µM.
Turning to `CCOC(=O)CC(C)C` [Ethyl isovalerate], the concentration for half-maximal inhibition (IC50) on PyasOBP2 [1] was above 20 µM.
Regarding `CCCCC(=O)OCC` [Ethyl valerate], the IC50 at PyasOBP2 [1] was above 20 µM.
For `CC12CCC(CC1)C(C)(C)O2` [Eucalyptol], at PyasOBP2 [1], the IC50 was determined as 15.1 µM and the Ki was 12.8 µM.
As to `C=CCc1ccc(O)c(OC)c1` [Eugenol], on PyasOBP2 [1], the IC50 was above 20 µM and the “binding to PyasOBP2 (in words)” value was “could not bind to PyasOBP2”.
Consider `CC(C)=CCCC(C)=CC#N` [Geranyl nitrile], for which, at PyasOBP2 [1], the IC50 is above 20 µM and the “binding to PyasOBP2 (in words)” value is on record as “could not bind to PyasOBP2”.
On to `CCCCCCC=O` [Heptaldehyde], for which, at PyasOBP2 [1], the IC50 turned out to be 15.4 µM and the Ki was 11.4 µM.
The like results for `CC(C)C=O` [Isobutyraldehyde] were, in that order, 13 µM and 11 µM.
Consider `C=CC(C)(O)CCC=C(C)C` (centres unmarked) [Linalool], for which, on PyasOBP2 [1], the IC50 amounted to 11.6 µM. The Ki on PyasOBP2 [1] is 9.88 µM; on PyasOBP2 [1] (listed as linalool), below 10 µM.
As to `CCCCCCCC/C=C\CCCCCCCC(=O)OC` [Methyl oleate], on PyasOBP2 [1], the IC50 is above 20 µM and the “binding to PyasOBP2 (in words)” value is “could not bind”.
Consider `CCCCCCCCCCCCCCCC(=O)OC` [Methyl palmitate], for which, at PyasOBP2 [1], the IC50 is above 20 µM, the inhibition constant (Ki) is above 20 µM and the “binding to PyasOBP2 (in words)” value is “could not bind”. Besides, the attraction of adults result in the experiment with P. yasumatsui adults is on record as “significantly attracted”. Besides, in experiment [3], the EAG response result was “strong EAG responses”.
Turning to `C=CC(=C)CCC=C(C)C` [Myrcene], at PyasOBP2 [1], the IC50 came to 11.8 µM and the Ki is 8.92 µM.
`CCCCCCCCC=O` [Nonanal] gave an IC50 at PyasOBP2 [1] of 15.6 µM. Besides, the Ki was 13.2 µM at PyasOBP2 [1] and below 20 µM on PyasOBP2 [1] (listed as nonanal). In addition, the attraction of adults result with P. yasumatsui adults was “significantly attracted”. For the same molecule, in experiment [3], the EAG response entry is reported as “strong EAG responses”.
Regarding `C=CC(C)=CCC=C(C)C` [Ocimene], on PyasOBP2 [1], the IC50 was 10.5 µM and the Ki is 8.92 µM. The Ki on PyasOBP2 [1] (listed as ocimene) is below 10 µM. Besides, the attraction of adults entry in the experiment with P. yasumatsui adults is “significantly attracted”. In addition, in experiment [3], the EAG response result was “strong EAG responses”.
For `CCCCCCCC=O` [Octanal], at PyasOBP2 [1], the IC50 is 7.81 µM and the Ki is 6.64 µM.
Turning to `CC(C)=CCC/C(C)=C/CC/C(C)=C/CC/C=C(\C)CC/C=C(\C)CCC=C(C)C` [Squalene], on PyasOBP2 [1], the IC50 is above 20 µM and the “binding to PyasOBP2 (in words)” value is reported as “could not bind”.
As to `CC/C=C\CCO` [cis-3-Hexen-1-ol], the IC50 on PyasOBP2 [1] amounted to 8.06 µM. Further, the Ki on PyasOBP2 [1] is 6.85 µM; on PyasOBP2 [1] (listed as cis-3-hexen-1-ol) it was below 10 µM.
The molecule `CC/C=C\CCOC(=O)CC(C)C` [cis-3-Hexenyl 3-methylbutanoate] registered an IC50 on PyasOBP2 [1] above 20 µM.
Same read-out and setting: the value for `CC/C=C\CCOC(C)=O` [cis-3-Hexenyl acetate] was above 20 µM.
Turning to `CCC/C=C/C=O` [trans-2-Hexen-1-al], at PyasOBP2 [1], the IC50 came out at 15.8 µM and the Ki was 13.4 µM.
Molecule `CCC/C=C/CO` [trans-2-Hexen-1-ol] had an IC50 on PyasOBP2 [1] of 8.93 µM. The values for the Ki on PyasOBP2 [1] and on PyasOBP2 [1] (listed as trans-2-hexen-1-ol) were 6.6 µM and below 10 µM, respectively.
For `CC1=CC[C@H](C(C)C)C=C1` [α-Phellandrene], at PyasOBP2 [1], the IC50 came out at 10.7 µM and the Ki is 9.12 µM.
Turning to `CC1=CCC2CC1C2(C)C` (stereo not drawn) [α-Pinene], at PyasOBP2 [1], the IC50 came out at 10.8 µM and the Ki is 9.18 µM.
`C=C/C(C)=C/C/C=C(\C)CCC=C(C)C` [α-farnesene]: the attraction of adults entry in the experiment with P. yasumatsui adults is recorded as “significantly attracted”.
With `C=C1CC/C=C(\C)CC[C@@H]2[C@@H]1CC2(C)C` [β-Caryophyllene], on PyasOBP2 [1], the IC50 is above 20 µM.

These data come from publication PMC9091336, “Functional Characterization of Odorant Binding Protein PyasOBP2 From the Jujube Bud Weevil, Pachyrhinus yasumatsui (Coleoptera: Curculionidae)” (Frontiers in Physiology, 2022).
